Data on one molecule can be found in patent US8034574B2, “Screening method for prokinetic agent” (Astellas Pharma Inc., priority 2006, dated 2011).

Usually EC50 stands for the concentration giving half of the maximal effect.

The experiment relates to guinea pig ileum. The experiment is described as follows: Isolated guinea pig gut constriction (Magnus, ileum). Here is the method: Guinea pigs (Hartley strain, male, weighing 300-400 g), under ether anesthesia, were exsanguinated to death by cutting the carotid artery. The ileum was extirpated, about 15-cm portions at both ends were removed, a section 1.5 cm long was cut out from the remaining portion, and incisions were made longitudinally parallelly in the gut to prepare a tabular specimen. This specimen was sandwiched with serrefine at both ends, and suspended with a thread in a Magnus chamber containing 10 ml of a 37° C. Krebs solution (118 mM NaCl, 4.7 mM KCl, 2.5 mM CaCl2, 1.2 mM MgSO4, 1.2 mM KH2PO4, 11 mM D-glucose, 20 mM NaHCO3) aerated with 95% O2-5% CO2 mixed gas. A 1-g load was applied to the specimen, buffers were exchanged at 15-minute intervals, and the specimen was allowed to stand for about 60 minutes to stabilize its tension. Changes in the tension in response to agonist stimulation were measured isometrically, and recorded on a recorder. Acetylcholine, 10^−5 M, was administered to induce contraction of the ileum specimen; after the contraction maximized, the bath was washed three times to purge out the acetylcholine. This operation was repeated at 10-minute intervals, and after the induced contraction stabilized two consecutive times, each test substance was administered. By comparing the contractile forces produced by acetylcholine and the test substance, the effect of the test substance was evaluated. One specimen was investigated only at one concentration of the test substance. […] From the results above, it was shown that the TRPA1 activator induced gut contraction.
The serotonin receptor antagonists used were pizotifen maleate (10 μM), a 5-HT1,2 receptor antagonist, ketanserin tartrate (0.1 μM), a 5-HT2 receptor antagonist, ramosetron hydrochloride (0.3 μM), a 5-HT3 receptor antagonist, and GR113808 (0.3 μM), a 5-HT4 receptor antagonist.
The inhibitory actions of various serotonin receptor antagonists on contraction upon stimulation with acrolein (300 μM) were investigated in the same manner. […] From the results above, it was shown that serotonin was released upon stimulation with acrolein to induce contraction via serotonin receptors such as 5-HT1 receptor and 5-HT3 receptor.

On to `C=CCN=C=S` [allyl isothiocyanate], for which, under “Cavia porcellus, read-out: EC50(μM) †”, the EC50 came out at 129 µM. In addition, where the note is “Magnus (guinea pig ileum)”, the Action entry is reported as “Contraction”.
